# Where two headings read alike, the source gives them in different places.
# How the values were obtained:
# CYP2C8 = settings: human liver microsomes, clinically relevant concentrations; ref data on file; cited from earlier work
# healthy subjects = experiment: Safety and tolerability; type: in vivo, human
# [1] = type: in vivo, human; settings: for CL/F, geometric mean (% CV) / CL/F, mean (SD) / AUC / Cmax: healthy subjects
# [2] = type: in vivo, human; settings: for CL/F, geometric mean (% CV) / CL/F, mean (SD) / AUC / Cmax: healthy subjects; remark: listed apart in the source
# CYP2C19 = settings: human liver microsomes, clinically relevant concentrations; ref data on file; cited from earlier work
# CYP3A expression = settings: human hepatocytes, clinically relevant concentrations, via activation of the pregnane X receptor; cited from earlier work
# [3] = system: crizotinib‐naive patients with ALK‐positive NSCLC; settings: cited from earlier work
# [4] = Rifampin DDI arm: single-dose brigatinib plasma PK with and without rifampin; type: in vivo, human; settings: for half-life / Cmax / AUC: human, plasma
# CYP2C9 = settings: human liver microsomes, clinically relevant concentrations; ref data on file; cited from earlier work
# [5] = single 180‐mg oral dose of [14C]‐brigatinib, healthy volunteers; cited from earlier work
# [6] = cited from earlier work
# CYP3A4/5 = settings: human liver microsomes, clinically relevant concentrations; ref data on file; cited from earlier work
# CYP2D6 = settings: human liver microsomes, clinically relevant concentrations; ref data on file; cited from earlier work
# CYP1A2 = settings: human liver microsomes, clinically relevant concentrations; ref data on file; cited from earlier work
# [7] = healthy volunteers, cited from earlier work
# CYP2B6 = settings: human liver microsomes, clinically relevant concentrations; ref data on file; cited from earlier work
# ALK = settings: in vitro; cited from earlier work
# [8] = brigatinib coadministered with gemfibrozil
# [9] = brigatinib 90 mg + itraconazole vs brigatinib alone
# [10] = brigatinib + itraconazole compared with brigatinib alone
# [11] = single 90 mg oral brigatinib + itraconazole 200 mg BID (test), n = 11
# [12] = single 90 mg oral brigatinib alone (reference), n = 20
# [13] = human, plasma, po, 90 mg, AUC0‐120, geometric mean (% CV), single 90 mg oral brigatinib alone (reference), n = 20
# [14] = human, plasma, po, 90 mg, AUC0‐120, mean (SD), single 90 mg oral brigatinib alone (reference), n = 20
# [15] = human, plasma, po, 90 mg, geometric mean (% CV), single 90 mg oral brigatinib alone (reference), n = 20
# [16] = brigatinib 90 mg + gemfibrozil vs brigatinib alone
# [17] = brigatinib + gemfibrozil compared with brigatinib alone
# [18] = single 90 mg oral brigatinib + gemfibrozil 600 mg BID (test), n = 19
# [19] = single 90 mg oral brigatinib alone (reference), n = 19
# [20] = brigatinib 180 mg + rifampin vs brigatinib alone
# [21] = brigatinib + rifampin compared with brigatinib alone
# [22] = healthy subjects, single 180 mg oral brigatinib + rifampin 600 mg QD (test), n = 19
# [23] = healthy subjects, single 180 mg oral brigatinib alone (reference), n = 20
structure (smiles),measurement,setting,value
"COc1cc(N2CCC(N3CCN(C)CC3)CC2)ccc1Nc1ncc(Cl)c(Nc2ccccc2P(C)(C)=O)n1 [brigatinib, Brigatinib]",inhibition of CYP2C8 activity,CYP2C8,did not inhibit
same,Any serious TEAE,healthy subjects; Gemfibrozil DDI arm (n = 20),0 n (%)
same,Any severe TEAE,healthy subjects; Gemfibrozil DDI arm (n = 20),0 n (%)
same,On‐study deaths,healthy subjects; Gemfibrozil DDI arm (n = 20),0 n (%)
same,Any TEAE,"healthy subjects; Gemfibrozil DDI arm (n = 20), brigatinib 90 mg alone and with gemfibrozil",9 (45) n (%)
same,AE leading to discontinuation,"healthy subjects; Gemfibrozil DDI arm (n = 20), emesis, treatment period 2",1 n (%)
same,AE leading to discontinuation,healthy subjects; Itraconazole DDI arm (n = 20),0 n (%)
same,Any serious TEAE,healthy subjects; Itraconazole DDI arm (n = 20),0 n (%)
same,Any severe TEAE,healthy subjects; Itraconazole DDI arm (n = 20),0 n (%)
same,On‐study deaths,healthy subjects; Itraconazole DDI arm (n = 20),0 n (%)
same,Any serious TEAE,healthy subjects; Rifampin DDI arm (n = 20),0 n (%)
same,Any severe TEAE,healthy subjects; Rifampin DDI arm (n = 20),0 n (%)
same,On‐study deaths,healthy subjects; Rifampin DDI arm (n = 20),0 n (%)
same,AE leading to discontinuation,"healthy subjects; Rifampin DDI arm (n = 20), elevated aspartate aminotransferase and alanine aminotransferase, treatment period 2",1 n (%)
same,TEAE incidence: cough,healthy subjects; [8],20%
same,TEAE incidence: throat irritation,healthy subjects; [8],10%
same,TEAE incidence: cough,healthy subjects; brigatinib coadministered with rifampin,10%
same,"CL/F, geometric LS mean ratio (90%CI) (test vs reference)",[1]; [9],0.50 (0.45‐0.54)
same,"Cmax, geometric LS mean ratio (90%CI) (test vs reference)",[1]; [9],1.21 (1.13‐1.30)
same,increase of geometric mean AUC0‐120,[1]; [10],82%
same,increase of geometric mean AUC0‐inf,[1]; [10],101%
same,increase of geometric mean Cmax,[1]; [10],21%
same,prolongation in the geometric mean t½,[1]; [10],~50%
same,increase of systemic exposure,[1]; by itraconazole,2 fold
same,"CL/F, geometric mean (% CV)",[1]; [11],6.67 (35.6) L/h
same,"CL/F, mean (SD)",[1]; [11],7.05 (2.54) L/h
same,"CL/F, geometric mean (% CV)",[1]; [12],14.0 (28.7) L/h
same,"CL/F, mean (SD)",[1]; [12],14.46 (3.84) L/h
same,Tmax,"[1]; human, plasma, po, 90 mg",2.8 h
same,half-life,"[1]; human, plasma, po, 90 mg",30.5 h
same,AUC,[1]; [13],6140 ng·h/mL
same,AUC,[1]; [14],6380 ng·h/mL
same,AUC,"[1]; human, plasma, po, 90 mg, AUC0‐inf, geometric mean (% CV), single 90 mg oral brigatinib alone (reference), n = 20",6450 ng·h/mL
same,AUC,"[1]; human, plasma, po, 90 mg, AUC0‐inf, mean (SD), single 90 mg oral brigatinib alone (reference), n = 20",6710 ng·h/mL
same,Cmax,[1]; [15],331 ng/mL
same,Cmax,"[1]; human, plasma, po, geometric mean (% CV), single 90 mg oral brigatinib + itraconazole 200 mg BID (test), n = 20",401 ng/mL
same,Cmax,"[1]; human, plasma, po, mean (SD), single 90 mg oral brigatinib + itraconazole 200 mg BID (test), n = 20",429 ng/mL
same,"AUC0‐120, geometric LS mean ratio (90%CI) (test vs reference)",[2]; [16],0.85 (0.80‐0.91)
same,"CL/F, geometric LS mean ratio (90%CI) (test vs reference)",[2]; [16],1.13 (1.06‐1.20)
same,reduction in peak concentrations,[2]; [17],approximately 40%
same,reduction of geometric mean AUC0‐inf,[2]; [17],12%
same,"CL/F, geometric mean (% CV)",[2]; [18],15.7 (25.7) L/h
same,"CL/F, mean (SD)",[2]; [18],16.2 (4.3) L/h
same,"CL/F, geometric mean (% CV)",[2]; [19],13.1 (33.9) L/h
same,"CL/F, mean (SD)",[2]; [19],13.8 (4.6) L/h
same,half-life,"[2]; human, plasma, oral, 90 mg",26.5 h
same,Tmax,"[2]; human, plasma, po, 90 mg",2 h
same,half-life,"[2]; human, plasma, po, 90 mg",26.7 h
same,AUC,[2]; [13],6490 ng·h/mL
same,AUC,[2]; [14],6840 ng·h/mL
same,AUC,"[2]; human, plasma, po, 90 mg, AUC0‐inf, geometric mean (% CV), single 90 mg oral brigatinib alone (reference), n = 19",6880 ng·h/mL
same,AUC,"[2]; human, plasma, po, 90 mg, AUC0‐inf, mean (SD), single 90 mg oral brigatinib alone (reference), n = 19",7230 ng·h/mL
same,Cmax,[2]; [15],348 ng/mL
same,AUC,"[2]; human, plasma, po, AUC0‐120, geometric mean (% CV), single 90 mg oral brigatinib + gemfibrozil 600 mg BID (test), n = 19",5340 ng·h/mL
same,AUC,"[2]; human, plasma, po, AUC0‐120, mean (SD), single 90 mg oral brigatinib + gemfibrozil 600 mg BID (test), n = 19",5520 ng·h/mL
same,AUC,"[2]; human, plasma, po, AUC0‐inf, geometric mean (% CV), single 90 mg oral brigatinib + gemfibrozil 600 mg BID (test), n = 19",5740 ng·h/mL
same,AUC,"[2]; human, plasma, po, AUC0‐inf, mean (SD), single 90 mg oral brigatinib + gemfibrozil 600 mg BID (test), n = 19",5910 ng·h/mL
same,Cmax,"[2]; human, plasma, po, geometric mean (% CV), single 90 mg oral brigatinib + gemfibrozil 600 mg BID (test), n = 19",199 ng/mL
same,Cmax,"[2]; human, plasma, po, mean (SD), single 90 mg oral brigatinib + gemfibrozil 600 mg BID (test), n = 19",210 ng/mL
same,inhibition of CYP2C19 activity,CYP2C19,did not inhibit
same,induction of CYP3A expression,CYP3A expression,induced CYP3A expression
same,"hazard ratio, progression‐free survival","[3]; brigatinib versus crizotinib, P < .001","0.49 [95%CI, 0.33‐0.74]"
same,12‐month progression‐free survival,"[3]; phase 3 trial, crizotinib‐naive patients with ALK‐positive NSCLC",67%
same,"AUC0‐120, geometric LS mean ratio (90%CI) (test vs reference)",[4]; [20],0.20 (0.19‐0.22)
same,"CL/F, geometric LS mean ratio (90%CI) (test vs reference)",[4]; [20],5.11 (4.73‐5.51)
same,decrease of geometric mean Cmax,[4]; [21],60%
same,reduction of geometric mean AUC0‐inf,[4]; [21],80%
same,"CL/F, geometric mean (% CV)",[4]; [22],59.2 (25.8) L/h
same,"CL/F, mean (SD)",[4]; [22],61.0 (15.4) L/h
same,"tmax, median (range)",[4]; [22],2.0 (1.0‐4.0) h
same,"CL/F, geometric mean (% CV)",[4]; [23],11.5 (34.4) L/h
same,"CL/F, mean (SD)",[4]; [23],12.2 (4.3) L/h
same,half-life,"[4]; oral, 180 mg, geometric mean t½, brigatinib 180 mg in the presence of rifampin",23.4 h
same,Cmax,"[4]; po, 180 mg, geometric mean (% CV), healthy subjects, single 180 mg oral brigatinib alone (reference), n = 20",826 ng/mL
same,AUC,"[4]; po, AUC0‐120, geometric mean (% CV), healthy subjects, single 180 mg oral brigatinib + rifampin 600 mg QD (test), n = 19",3020 ng·h/mL
same,AUC,"[4]; po, AUC0‐120, mean (SD), healthy subjects, single 180 mg oral brigatinib + rifampin 600 mg QD (test), n = 19",3110 ng·h/mL
same,AUC,"[4]; po, AUC0‐inf, geometric mean (% CV), healthy subjects, single 180 mg oral brigatinib + rifampin 600 mg QD (test), n = 19",3040 ng·h/mL
same,AUC,"[4]; po, AUC0‐inf, mean (SD), healthy subjects, single 180 mg oral brigatinib + rifampin 600 mg QD (test), n = 19",3140 ng·h/mL
same,Cmax,"[4]; po, geometric mean (% CV), healthy subjects, single 180 mg oral brigatinib + rifampin 600 mg QD (test), n = 19",334 ng/mL
same,Cmax,"[4]; po, mean (SD), healthy subjects, single 180 mg oral brigatinib + rifampin 600 mg QD (test), n = 19",347 ng/mL
same,half-life,"[4]; po, t½, mean (SD), healthy subjects, single 180 mg oral brigatinib + rifampin 600 mg QD (test), n = 19",23.7 h
same,increase in CL/F,[4]; in the presence of rifampin,approximately 5 fold
same,inhibition of CYP2C9 activity,CYP2C9,did not inhibit
same,administered dose recovered in feces,[5],65%
same,administered dose recovered in urine,[5],25%
same,share of circulating radioactive components,[5],92%
same,steady‐state apparent oral clearance (CL/F),[6]; 180 mg once daily in patients with cancer,12.7 L/h
same,single‐ and repeat‐dose systemic exposures versus dose,"[6]; patients with cancer, dose range 60‐240 mg once daily",increased dose‐proportionally
same,inhibition of CYP3A4/5 activity,CYP3A4/5,did not inhibit
same,inhibition of CYP2D6 activity,CYP2D6,did not inhibit
same,inhibition of CYP1A2 activity,CYP1A2,did not inhibit
same,decrease of peak concentration (Cmax) by a high‐fat meal,[7]; compared with fasted‐state administration,13%
same,median time to Cmax (tmax),[7]; fasted state,2 h
same,median time to Cmax (tmax),[7]; high‐fat meal,5 h
same,effect of a high‐fat meal on total systemic exposure,[7],no impact
same,inhibition of CYP2B6 activity,CYP2B6,did not inhibit
COc1cc(N2CCC(N3CCNCC3)CC2)ccc1Nc1ncc(Cl)c(Nc2ccccc2P(C)(C)=O)n1 [N‐desmethyl brigatinib],"ALK inhibition potency, fold lower than brigatinib",ALK,approximately 3 fold
same,share of circulating radioactive components,[5],3.5%

# From PMC7027746 (Clinical Pharmacology in Drug Development, 2019)
